system: Tobacco mosaic virus; assay: Antiviral activity against TMV at 500 mg/L; type: functional

Compound	inhibition at 500 µg/mL
CNC(=O)C(c1csnn1)[S+]([O-])c1ccc(F)cc1 (stereo not given)	11%
CNC(=O)C(Sc1cc(Cl)ccc1Cl)c1csnn1 (stereo not given)	0%
CNC(=O)C(Oc1ccc2ccccc2c1)c1csnn1 (stereo not given)	44%
CNC(=O)C(c1csnn1)[S+]([O-])c1ccc(Cl)cc1 (stereo not given)	31%
CNC(=O)C(c1csnn1)S(=O)(=O)c1cc(C)ccc1C (stereo not given)	12%
CNC(=O)C(Sc1nc2nc(C)cc(C)n2n1)c1csnn1 (stereo not given)	5%
CNC(=O)C(c1csnn1)[S+]([O-])c1cc(C)ccc1C (stereo not given)	0%
CNC(=O)C(c1csnn1)[S+]([O-])Cc1ccc(Cl)cc1 (stereo not given)	20%
CNC(=O)C(Sc1ccc(F)cc1)c1csnn1 (stereo not given)	33%
CNC(=O)C(c1csnn1)n1cncn1 (stereo not given)	42%
CNC(=O)C(c1csnn1)S(=O)(=O)c1ccccc1F (stereo not given)	82%
CNC(=O)C(c1csnn1)S(=O)(=O)c1ccc(F)cc1 (stereo not given)	19%
CNC(=O)C(Oc1ccccc1Cl)c1csnn1 (stereo not given)	53%
CNC(=O)C(Sc1cc(C)ccc1C)c1csnn1 (stereo not given)	0%
CNC(=O)C(Oc1ccc(Br)cc1)c1csnn1 (stereo not given)	64%
CNC(=O)C(SCc1ccc(Cl)cc1)c1csnn1 (stereo not given)	35%
CNC(=O)C(Sc1nnc(-c2c(C)nn(C)c2SC)s1)c1csnn1 (stereo not given)	35%
CNC(=O)C(c1csnn1)S(=O)(=O)c1ccc(OC)cc1 (stereo not given)	0%
CNC(=O)C(Oc1cc(C)ccc1Cl)c1csnn1 (stereo not given)	56%
CNC(=O)C(c1csnn1)S(=O)(=O)Cc1ccc(Cl)cc1 (stereo not given)	51%
CNC(=O)C(Sc1ccc(Cl)cc1)c1csnn1 (stereo not given)	42%
CNC(=O)C(Oc1ccccc1Br)c1csnn1 (stereo not given)	44%
CNC(=O)C(Oc1cccc(C)c1)c1csnn1 (stereo not given)	5.5%
CNC(=O)C(Sc1ccccc1F)c1csnn1 (stereo not given)	37%
CNC(=O)C(c1csnn1)[S+]([O-])c1ccccc1F (stereo not given)	19%

system: Hepatitis B virus; assay: Antiviral activity against HBV in HepG2 2.2.15 cells assessed as inhibition of HBsAg at 0.6 umol/mL; type: functional

Compound	Inhibition
CNC(=O)C(Oc1cc(C)ccc1Cl)c1csnn1 (stereo not given)	88.6%

system: Hepatitis B virus; assay: Antiviral activity against HBV in HepG2 2.2.15 cells assessed as inhibition of HBeAg at 0.6 umol/mL; type: functional

Compound	Inhibition
CNC(=O)C(Oc1cc(C)ccc1Cl)c1csnn1 (stereo not given)	15.5%

system: Hepatitis B virus; assay: Antiviral activity against HBV in HepG2 2.2.15 cells assessed as inhibition of HBsAg at 0.4 umol/mL; type: functional

Compound	Inhibition
CNC(=O)C(Oc1cc(C)ccc1Cl)c1csnn1 (stereo not given)	52.9%

system: Hepatitis B virus; assay: Antiviral activity against HBV in HepG2 2.2.15 cells assessed as inhibition of HBeAg at 0.4 umol/mL; type: functional

Compound	Inhibition
CNC(=O)C(Oc1cc(C)ccc1Cl)c1csnn1 (stereo not given)	44.2%

system: Hepatitis B virus; assay: Antiviral activity against HBV in HepG2 2.2.15 cells assessed as inhibition of viral DNA synthesis; type: functional, organism-based

Compound	IC50
CNC(=O)C(Oc1cc(C)ccc1Cl)c1csnn1 (stereo not given)	400 µM
